Reference: US7314864B1, “Humanin, a polypeptide suppressing neuronal death” (Keio University, priority 1999, dated 2008)

Assays:
[1] = test system: primary cultured cortical neurons treated with Aβ1-43; test: Aβ1-43-induced cell damage of primary cultured cortical neurons, LDH release; type: cell-based, mouse; conditions: 100 ng/ml
Experimental: Primary culture of mouse cortical neurons was performed in poly-D-lysine-coated 24-well plates (Sumitomo Bakelite) in the absence of serum and in the presence of N2 supplement, as described in literature (Ecksioglu, Y. Z. et al. (1994) Brain Res. 644, 282-90). The purity of neurons prepared according to the method was >98%. The prepared neurons (1.25×10^5/well, 250 μl media/well) were preincubated in the absence or presence of 10 nM or 10 μM sHN polypeptides for 16 hours; and were treated with 25 μM Aβ1-43 in the absence or presence of sHN polypeptides at the same concentrations for 24 to 72 hours. […]
Trypan blue exclusion assay was performed as follows. […] Within 3 minutes of the trypan blue solution addition, stained cells were counted. Cell mortality was determined [100-cell survival rate (%)] based on the stained cell count. […] Specifically, 6 μM Calcein-AM (3′, 6′-Di-(O-acetyl)-2′-7′-bis[N,N-bis(carboxymethyl)aminomethyl]fluorescein, tetraacetoxymethyl ester; Dojindo, Cat. #349-07201) was added to the neurons; and 30 minutes or longer after Calcein-AM treatment, fluorescence (ex=490 nm, em=515 nm) was observed by fluorescence microscopy, and measured by a spectrometer. Specific fluorescence was calculated by subtracting basal fluorescence from total fluorescence. […]

[2] = test system: primary cultured cortical neurons treated with Aβ1-43; test: Aβ1-43-induced cell death of primary cultured cortical neurons, trypan blue exclusion assay; type: cell-based; conditions: 100 ng/ml

NGF: NGF, tested at 100 ng/ml against Aβ-induced neuronal death [reference compound]
effect on increased LDH release induced by Aβ [1]: did not show effects
effect on cell death of neurons induced by Aβ [2]: did not show effects
